Where a name gives a salt, the structure may show the parent alone.
Legend:
[1] = system: A204; assay: Antiproliferative activity of compound was tested against rhabdomyosarcoma (A-204) human tumor cells; type: functional, cell-based
[2] = system: MCF7; assay: Antiproliferative activity of compound was tested against mammary carcinoma (MCF-7) human tumor cells; type: functional, cell-based
[3] = system: T-24; assay: Antiproliferative activity of compound was tested against bladder carcinoma (T-24) human tumor cells; type: functional, cell-based
[4] = system: IGR-37 cell line; assay: Antiproliferative activity of compound was tested against melanoma (IgR-37) human tumor cells; type: functional, cell-based
[5] = system: beta-glucosidase; assay: Compound was tested for enzyme activation with 0.3 U/mL beta-glucosidase by measuring its half-life; conditions: beta-glucosidase (isolated enzyme)
[6] = system: A498; assay: Antiproliferative activity of compound was tested against renal cancer (A-498) human tumor cells; type: functional, cell-based
[7] = system: EVSA-T; assay: Antiproliferative activity of compound was tested against mammary carcinoma (EVSAT) human tumor cells; type: functional, cell-based
[8] = system: M19-MEL; assay: Antiproliferative activity of compound was tested against melanoma (M-19) human tumor cells; type: functional, cell-based
[9] = system: IGROV-1; assay: Antiproliferative activity of compound was tested against ovarian carcinoma (IGROV) human tumor cells; type: functional, cell-based
[10] = system: WiDr; assay: Antiproliferative activity of compound was tested against colon carcinoma (WiDr) human tumor cells; type: functional, cell-based
[11] = system: beta-glucuronidase; assay: Compound was tested for enzyme activation with 0.03 U/mL beta-glucuronidase by measuring its half-life; conditions: beta-glucuronidase (isolated enzyme)

COc1cccc2c1C(=O)c1c(O)c3c(c(O)c1C2=O)C[C@@](O)(C(C)=O)C[C@@H]3O[C@H]1C[C@@H](N)[C@H](OS(=O)(=O)O)[C@H](C)O1
IC50 [1]: 1.3 µM
IC50 ([2]; Homo sapiens, MCF7): 870 µM
IC50 [3]: 5500 µM
IC50 [4]: 3000 µM

COc1cccc2c1C(=O)c1c(O)c3c(c(O)c1C2=O)C[C@@](O)(C(C)=O)C[C@@H]3O[C@H]1C[C@@H](NC(=O)O[C@@H]2O[C@@H](C(=O)O)[C@@H](O)[C@H](O)[C@@H]2O)[C@H](O)[C@H](C)O1
half-life [5]: > 5.56 days
IC50 ([6]; a498): 250 µM
IC50 ([7]; evsa-t): 280 µM
IC50 ([2]; mcf7): 125 µM
IC50 ([8]; m19-mel): 200 µM
IC50 ([9]; igrov-1): 520 µM
IC50 ([10]; widr): 370 µM

COc1cccc2c1C(=O)c1c(O)c3c(c(O)c1C2=O)C[C@@](O)(C(C)=O)C[C@@H]3O[C@H]1C[C@@H](NP(=O)(O)O)[C@H](O)[C@H](C)O1
IC50 [1]: 17 µM
IC50 ([2]; Homo sapiens, MCF7): 370 µM
IC50 [3]: 2 µM
IC50 [4]: 96 µM
IC50 ([10]; Homo sapiens, WiDr): 10 µM

COc1cccc2c1C(=O)c1c(O)c3c(c(O)c1C2=O)C[C@@](O)(C(C)=O)C[C@@H]3O[C@H]1C[C@@H](NC(=O)O[C@@H]2O[C@@H](C(=O)[O-])[C@@H](O)[C@H](O)[C@@H]2O)[C@H](O)[C@H](C)O1.[Na+]
IC50 ([6]; a498): 12100 µM
IC50 ([7]; evsa-t): 13500 µM
IC50 ([2]; mcf7): 11200 µM
IC50 ([8]; m19-mel): 15800 µM
half-life [11]: 5.69 days
IC50 ([9]; igrov-1): 36900 µM

COc1cccc2c1C(=O)c1c(O)c3c(c(O)c1C2=O)C[C@@](O)(C(C)=O)C[C@@H]3O[C@H]1C[C@H](N)[C@H](O)[C@H](C)O1 [DAUNORUBICIN HYDROCHLORIDE]
IC50 [1]: 3 µM
IC50 ([6]; Homo sapiens, A498): 3 µM
IC50 ([7]; Homo sapiens, EVSA-T): 2 µM
IC50 ([2]; Homo sapiens, MCF7): 2 µM
IC50 [3]: 2 µM
IC50 [4]: 11 µM
IC50 ([8]; Homo sapiens, M19-MEL): 2 µM
IC50 ([9]; Homo sapiens, IGROV-1): 18 µM
IC50 ([10]; Homo sapiens, WiDr): 7 µM

COc1cccc2c1C(=O)c1c(O)c3c(c(O)c1C2=O)C[C@@](O)(C(C)=O)C[C@@H]3O[C@H]1C[C@@H](N)[C@H](OP(=O)(O)O)[C@H](C)O1
IC50 [1]: 17 µM
IC50 ([2]; Homo sapiens, MCF7): 89 µM
IC50 [3]: 3 µM
IC50 [4]: 45 µM
IC50 ([10]; Homo sapiens, WiDr): 58 µM

COc1cccc2c1C(=O)c1c(O)c3c(c(O)c1C2=O)C[C@@](O)(C(C)=O)C[C@@H]3O[C@H]1C[C@@H](NS(=O)(=O)O)[C@H](O)[C@H](C)O1
IC50 [1]: 4.9 µM
IC50 ([2]; Homo sapiens, MCF7): 10400 µM
